Experimental data from patent US5773019A, “Implantable controlled release device to deliver drugs directly to an internal portion of the body” (The University of Kentucky Research Foundation, priority 1995, dated 1998).
Values after ≈ are worked out from the molar mass of the structure shown.

Assays:
eye [1] = assay: ERG toxicity of retinoic acid implant sutured onto sclera; assay type: in vivo; details: 12 mg disc in silicone on sclera, 3 rabbits, ERG weekly for 5 weeks
Description: A device according to the present invention was prepared. This device was composed of a 3 mm, 12 mg disc of retinoic acid encased in silicone. It resembles FIG. 3 in appearance. The implant was prepared by preparing a thin film of silicone. A 2.5 mm hole was then cut through the film and the retinoic acid pellet fixed directly over the hole using silicone. A loop of Prolene suture was placed over the pellet and fixed onto the surface of the film so that a "gap" of over 1 mm was present between the pellet and the suture all the way around. The entire assembly was then coated again in silicone. These pellets were sutured onto the surface of the sclera in 3 rabbits and the ERGs taken every week for 5 weeks.

[2] = In vitro release of ciprofloxacin from device (HPLC); assay type: physicochemical
Description: Ciprofloxacin is normally supplied as the HCl salt. […] A 5% solution of PLA was used as a "glue" to fix a 7-0 nylon suture to the pellet.
Release from these devices was determined at 37° C. by immersion in 1 ml of phosphate buffer (pH 7.4) or a solution composed of 20% serum: 80% phosphate buffer. […] Samples were again assayed by HPLC.

eye [3] = assay: Ocular safety of ciprofloxacin device (ERG, slit lamp, indirect biomicroscopy)
most pathogens = details: cited from earlier work

Row | SMILES | toxicity (ERG) (eye [1]) | linearity of release ([2]; 37° C., 6 days, phosphate buffer pH 7.4 or 20% serum) | effect of serum concentration on release ([2]; phosphate buffer pH 7.4 vs 20% serum) | linearity of release ([2]; separate study, twenty day period) | persistence of drug particles in subconjunctival space (5 mg subconjunctival suspension injection) [days] | linearity of release in the vitreous (explanted devices) | mean release rate in the vitreous (explanted devices) [µg/h] | mean device duration (from mean release rate) [weeks] | slit lamp examination (eye [3]; 7 and 14 days) | indirect biomicroscopy (eye [3]; implanted eyes) | ERG waveforms or amplitudes (eye [3]; pre- vs post-implantation) | MIC90 (most pathogens) [µg/mL]
1 | CC1=C(/C=C/C(C)=C/C=C/C(C)=C/C(=O)O)C(C)(C)CCC1 [retinoic acid] | no evidence of toxicity |  |  |  |  |  |  |  |  |  |  | 
2 | O=C(O)c1cn(C2CC2)c2cc(N3CCNCC3)c(F)cc2c1=O [ciprofloxacin] |  | linear over the duration of the study | relatively independent of serum concentration | linear over a twenty day period | 7 | linear while in the vitreous | 2.5 | 4 | mild vitreous cell at 7 days that had resolved by 14 days | devices to be stable with no migration and no retinal detachment | no significant difference in the pre- and post-implantation waveforms or amplitudes | 1 (≈ 3.02 µM)
